Test results published in publication PMC6749073 (Frontiers in Pharmacology, 2019).

Experiments:
normal ICR mice = assay: LD50 in normal ICR mice; type: in vivo; conditions: tail vein injection
Procedure: (§1) After injection, the animals’ condition was monitored every day for over 1 week by an observer who was blinded to the dose and drug allocation.
(§2) Estimates for ED50 and LD50 were calculated through nonlinear regression, data were fitted to a sigmoidal dose-response relationship in Prism (version 4.0a; GraphPad Software, Inc., San Diego, CA). The data were fitted to the equation:
(§3) Y=Ymin+Ymax−Ymin/1+10^(LogED50−X)∗HillSlope
(§4) where X is the logarithm of concentration, and Y is the response.

[1] = tested on: A549, NCI-H292, NCI-H460, and LTEP-A-2 xenograft models; assay: ED50 (50% reduction of xenograft tumor volume) in nude mice; type: in vivo; conditions: dose reducing xenograft tumor volume by 50%; average over A549, NCI-H292, NCI-H460, and LTEP-A-2 xenograft models
Procedure: as §1, §2, §3, §4

A549 = assay: MTT cell viability assay, A549; type: cell-based, human; conditions: 48 h
Procedure: (§5) Cells were seeded at a density of 1 × 10^4 cells per well in 96-well plates. The following day, these cells were washed with PBS and exposed to different concentrations of testing compounds in culture medium for 48 h. MTT solution (10 μl at 5 mg/ml) was added to each well. After 4 h of incubation at 37°C, the medium was removed, and the insoluble precipitate was dissolved in 100 μl DMSO (Sigma, St. Louis, MO, USA). The absorbance of the dissolved solution at 490 nm was measured using a microplate reader (TECAN A-5082; Megllan, Austria). Cell viability percentages were calculated by dividing the mean optical density (OD) of compound-containing wells by that of the control wells. Each experiment was replicated three times. The IC50 of testing drugs was calculated with Statistical Product and Service Solutions software (SPSS, version 16.0).

H292 = assay: MTT cell viability assay, H292; type: cell-based, human; conditions: 48 h
Procedure: as §5

H460 = assay: MTT cell viability assay, H460; type: cell-based, human; conditions: 48 h
Procedure: as §5

HCC827 = assay: MTT cell viability assay, HCC827; type: cell-based, human; conditions: 48 h
Procedure: as §5

H1299 = assay: MTT cell viability assay, H1299; type: cell-based, human; conditions: 48 h
Procedure: as §5

LTEP-A-2 = assay: MTT cell viability assay, LTEP-A-2; type: cell-based, human; conditions: 48 h
Procedure: as §5

H1650 = assay: MTT cell viability assay, H1650; type: cell-based, human; conditions: 48 h
Procedure: as §5

Calu-3 = assay: MTT cell viability assay, Calu-3; type: cell-based, human; conditions: 48 h
Procedure: as §5

A549/DDP = assay: MTT cell viability assay, A549/DDP; type: cell-based, human; conditions: A549/DDP (DDP-resistant), 48 h
Procedure: as §5

[2] = tested on: BEAS-2B normal human lung epithelial cell line; assay: MTT cell viability assay, BEAS-2B; type: cell-based; conditions: BEAS-2B normal lung epithelial cells; MTT; 48 h
Procedure: as §5

lung tumor cell lines = assay: MTT cell viability assay, panel of lung tumor cell lines; type: cell-based, human; conditions: 48 h, read-out: IC50 range over the lung tumor cell lines
Procedure: as §5

[3] = Body weight and tolerability of A549 and H292 xenograft mice; type: in vivo; conditions: diplatin 120 mg/kg; CBP 60 mg/kg; every 3 days i.v.
Procedure: Cells in logarithmic growth were washed with PBS and suspended in serum-free medium. Portions of the suspension (5 × 10^6 cells in 0.1 ml/mouse) were mixed at a 3:1 ratio with Matrigel basement membrane matrix and injected subcutaneously into the mice. Following 2 weeks of growth, tumor tissues were cut into multiple 2 × 2 × 2 mm^3 pieces and implanted using a range trocar subcutaneously (s.c. injection) into the left forepaw armpit of each mouse ([Jiang et al., 2017]). Treatment with pharmacology was started when the tumors reached an average volume of 100–200 mm^3. The mice were randomly divided into six groups (n = 14/group).
Body weight and tumor size were assessed every 3 days. Tumor size was measured using a caliper, the volumes were calculated according to the following standard formula: V = (L × W^2)/2 (V = tumor volume, L = largest diameter of tumor, W = smallest diameter of tumor). On day 25, all mice were sacrificed by cervical dislocation, and the tumors were removed and weighed.

[4] = tested on: peripheral blood cell count; assay: Peripheral blood cell count of treated xenograft mice; type: in vivo; conditions: diplatin 120 mg/kg; DDP 6 mg/kg; CBP 60 mg/kg
[5] = Splenic index (spleen weight-to-body weight ratio); type: in vivo, mice; conditions: diplatin 30, 60, 120 mg/kg; DDP 6 mg/kg; CBP 60 mg/kg
[6] = tested on: bone marrow karyocyte count; assay: Bone marrow karyocyte count; type: in vivo, mice
A549 cells = assay: Cell cycle by PI flow cytometry, A549; type: cell-based, human; conditions: diplatin 50 μM, DDP 5 μM, CBP 100 μM
Procedure: (§6) Then, the cells were trypsinized, washed with PBS, and fixed in 1.5 ml 95% ethanol and left at 4°C overnight. They were then incubated with RNase and stained with propidium iodide (PI) (Multi Sciences Biotech Co., Ltd). PI absorbance was determined using a Cytomics FC500 Flow Cytometer (Beckman Coulter, USA).

H292 cells = assay: Cell cycle by PI flow cytometry, H292; type: cell-based, human; conditions: diplatin 50 μM, DDP 5 μM, CBP 100 μM
Procedure: as §6

LTEP-A-2 cells = assay: Cell cycle by PI flow cytometry, LTEP-A-2; type: cell-based, human; conditions: diplatin 50 µM, DDP 5 µM, CBP 100 µM
Procedure: as §6

H460 cells = assay: Cell cycle by PI flow cytometry, H460; type: cell-based, human; conditions: diplatin 50 µM, DDP 5 µM, CBP 100 µM
Procedure: as §6

A549 tumors = assay: TUNEL assay of A549 xenograft tumor sections; type: in vivo, mice; conditions: diplatin 120 mg/kg, DDP 6 mg/kg, CBP 60 mg/kg
Procedure: (§7) Tumor tissues were fixed in 10% formalin for 4 h and then embedded in paraffin. Five-micrometer-thick sections were sliced and stained for apoptotic cells with TUNEL assay kit in accordance with manufacturer instructions (KGI Biotechnology Company, Nanjing, China). A positive result was marked by brown staining in the cell nucleus. Cell images were acquired through a microscope (Olympus BX 51, Japan). The apoptotic index (AI) was determined as a percentage of apoptotic cells from at least 1,000 cells in each mouse.

H292 tumors = assay: TUNEL assay of H292 xenograft tumor sections; type: in vivo, mice; conditions: diplatin 120 mg/kg, DDP 6 mg/kg, CBP 60 mg/kg
Procedure: as §7

[7] = tested on: JNK, Erk1/2 and p38 phosphorylation in A549 and H292 cells; assay: Western blot of MAPK phosphorylation (JNK, Erk1/2, p38); type: cell-based, human; conditions: for Erk1/2 and p38 phosphorylation: diplatin 10, 25, 50 μM, DDP 5 μM, CBP 100 μM
Procedure: (§8) Cells were treated with diplatin, DDP, and CBP before being lysed. After centrifugation at 12,000 rpm for 10 min, an equal amount of protein from each group was subjected to electrophoresis on 10% SDS-PAGE gels. The proteins in the gel were then electroblotted onto polyvinylidene fluoride (PVDF) membranes (Millipore, Massachusetts, USA). After incubation in the blocking buffer (1× TBS, 0.1% Tween-20, and 5% w/v dry nonfat milk) for 1 h at room temperature, the membranes were incubated with the primary antibody at 4°C overnight. Next, membranes were rinsed with TBST, and then secondary antibodies were applied (LI-COR, USA) at room temperature for 1 h. Immunoreactive bands were visualized by a two-color infrared imaging system (Odyssey, LI-COR, USA).

[8] = design: method as in Moraleja et al., 2018; conditions: rats; ref Moraleja et al., 2018; cited from earlier work
[9] = tested on: p53, Fas, and Bax expressions in A549 and H292 cells; assay: Western blot of p53, Fas and Bax; type: cell-based, human; conditions: 10 μM SP600125 pretreatment 0.5 h, 25 μM diplatin 48 h
Procedure: as §8

Row | Compound | Mice ED50 [1] [mg/kg] | IC50 (A549) [µM] | IC50 (H292) [µM] | IC50 (HCC827) [µM] | IC50 (H1299) [µM] | IC50 (LTEP-A-2) [µM] | IC50 (H1650) [µM] | IC50 (Calu-3) [µM] | IC50 (A549/DDP) [µM] | IC50 [2] [µM] | effect on cell cycle distribution (A549 cells) | effect on cell cycle distribution (H292 cells) | effect on cell cycle distribution (LTEP-A-2 cells) | effect on cell cycle distribution (H460 cells) | Erk1/2 and p38 phosphorylation [7] | also measured
1 | N.N.O=C([O-])C1(C(=O)[O-])CCC1.[Pt+2] [CBP, carboplatin] | 59.5 | 221 | 257 | 328 | 274 | 57 | 209 | 790 | 300 | 461 | induced cell cycle arrest in S phase | induced cell cycle arrest in S phase | induced cell cycle arrest in S phase | induced cell cycle arrest in S phase | failed to induce Erk1/2 and p38 phosphorylation | Mice LD50 (normal ICR mice): 150 mg/kg; IC50 (H460): 229 µM; IC50 (lung tumor cell lines): 57 to 790 µM; reduction of body weight by day 25 [3]: 18.71%; decrease of peripheral blood cell count [4]: 67.9%; splenic index relative to control [5]: no difference relative to control; bone marrow karyocyte count compared with the 120 mg/kg diplatin-treated group ([6]; DDP 6 mg/kg, CBP 60 mg/kg): decreased bone marrow karyocyte count more; apoptosis (apoptotic index, TUNEL) (A549 tumors): 18.5%; apoptosis (apoptotic index, TUNEL) (H292 tumors): 24.9%
2 | N.N.[Cl][Pt][Cl] [DDP, cisplatin] | 6.0 | 46.7 | 6 | 14.7 | 18.7 | 6.2 | 11.6 | 33.5 | 151 | 19.3 | induced cell cycle arrest in S phase | induced cell cycle arrest in S phase | induced cell cycle arrest in S phase | induced cell cycle arrest in S phase | failed to induce Erk1/2 and p38 phosphorylation | bone marrow karyocyte count compared with the 120 mg/kg diplatin-treated group ([6]; mouse, in vivo): decreased bone marrow karyocyte count more; JNK phosphorylation levels ([7]; diplatin 10–50 μM, DDP 10 μM, 0.5 h): elevated; Pt accumulation in the kidney compared with the CBP group [8]: approximately five-fold higher
3 | Oc1c2ccccc2c2c3c(cccc13)N=N2 [SP600125] |  |  |  |  |  |  |  |  |  |  |  |  |  |  |  | effect on diplatin-induced p53, Fas, and Bax expression [9]: suppressed
